From patent publication US10674699B2, “Endophyte enhanced seedlings with increased pest tolerance” (priority 2006, dated 2020)

Experiments:
[1] = system: Choristoneura fumiferana (spruce budworm) larvae; assay: Dietary rugulosin in artificial diet, spruce budworm larvae; type: in vivo
Description: Spruce budworm (Choristoneura fumiferana) larvae were obtained from the colony at the Natural Resources Canada, Canadian Forest Service Laboratory in Sault Ste. Marie, Ontario and stored at 5° C. For each test, second instar larvae are put in creamer cups containing approximately 15 ml of artificial diet which had been prepared the day before and allowed to set overnight. The diet used is based on McMorran (1965) as modified by Forestry Canada. The cups are placed in a growth chamber at 22° C., 55% RH with 16 h light/day until they reach 4-5 instar as estimated by visually assessment. Batches of diet are prepared and suitable portions were measured out for addition of extracts, fractions or pure compounds. After 4 days on the test diet, the budworms were frozen, weighed and measured. The data was analyzed for dry weight reductions in comparison to controls and for changes in the distribution of insects at different instars in comparison to controls.
C. fumiferana larvae (spruce budworm) were obtained from Insect Production Services, Forestry Canada (Sault Ste. Marie, ON) and stored at 5° C. For each test, a sufficient number of larvae were hatched and put in creamer cups containing 15 ml of artificial diet. The diet was prepared in-house (McMorran 1965). The cups were placed in a growth chamber at 22° C., 55% RH with 16 h light/day until the larvae reached second/third instar (McGugan 1954). A suitable amount of diet was prepared, and 4 aliquots dispensed into a flask. Dilutions of pure rugulosin were made in 95% ethanol to provide the required concentrations (540 μl ethanol solution plus the vehicle control) and added to the flasks respectively. The diet was mixed with a stir bar and by the pipette used to dispense the media. Two drops of hot liquid diet were added with a 10 ml sterile pipette (0.1 g dry weight) to 4 ml tapered plastic sample cups (Fisher Scientific #025444, #25444A). […] Head capsule widths were determined using a stereo microscope at 40× with ocular and stage micrometers. […]

Aspergillus fumigatus = assay: Fungal growth in budmoth test vials with dietary rugulosin; type: cell-based; conditions: A. fumigatus-contaminated larvae; few vials with fungal growth at 100 and 150 μM
Description: Zeiraphera canadensis larvae (spruce budmoth) were collected from the wild near Sussex in mid June. They were immediately put in test vials and tested at rugulosin concentrations of 10, 50, 100 and 150 μM (75 per concentration). After seven days, surviving larvae were frozen and measured.
Many (60%) succumbed to fungal infections (Aspergillus fumigatus) and other unknown causes over the course of rearing. […] However, using the Wilcoxon matched-pairs signed-ranks test, the larvae fed 100 or 150 μM rugulosin in the diet were lighter than those fed the 10 μM rugulosin and control diets (p<0.10). Because of the high percentage of A. fumigatus-contaminated larvae in the experiment, an unanticipated result was the antifungal activity observed above 50 μM, few vials had fungal growth in the tests at 100 μM and 150 μM rugulosin.

[2] = system: Lambdina fiscellaria (hemlock looper) larvae; assay: Dietary rugulosin in artificial diet, hemlock looper larvae; type: in vivo; conditions: 1 week
Description: The toxicity of an endophyte toxin on a pest such as hemlock looper is optionally tested according to the following method. The toxin to be tested is incorporated into an artificial diet suitable for pest growth. Artificial diet is prepared in individual cups, containing toxin concentrations of 5 micromolar, 10 micromolar, 25 micromolar, 50 micromolar and 100 micromolar. One 3rd instar insect is added to each of 75 cups per dilution and incubated in a growth chamber under appropriate conditions such as at 22 C, 55% relative humidity with 16 h light/day. After 4 days, the insects are frozen, weighed and their head capsules measured. A reduction in head capsule size (eg. width) or weight compared to a control sample is indicative of the presence of a toxin. One skilled in the art would understand that this method can be modified to test different concentrations of toxin and that the conditions can be modified to test a variety of different pests.
Lambdina fiscellaria eggs (hemlock looper) were purchased from Forestry Canada in three lots. The eggs were incubated at room temperature for 10 d until larvae emerged. Larvae from each batch emerged within two days of each other and were immediately put on diet in cups as above. […] After 1 week on the test diets, the larvae were frozen, weighed and head capsule width determined.

[3] = system: ovarian cells of the fall armyworm, Spodoptera frugiperda; conditions: Watts et al. 2003; cited from earlier work

## Cc1cc(O)c2c(c1)C(=O)[C@]13C(=C2O)C(=O)[C@@H]2[C@H](O)[C@H]1[C@@H]1[C@@H](O)[C@H]3C(=O)C3=C(O)c4c(O)cc(C)cc4C(=O)[C@]312 [rugulosin]
[1]; artificial diet, 4 d
  dietary rugulosin concentration with significantly reduced head capsule: 100 µM
[1]; dietary LOEL adjusted for mean ratio dry weight:wet weight of needles
  dietary toxic effect level for rugulosin: 0.5 µg/g
[1]; in vitro (diet), Example 1
  rugulosin concentration in vitro that affected budworm growth and development: 1 µg/g
Aspergillus fumigatus
  rugulosin concentration above which antifungal activity was observed: above 50 μM
[2]
  dietary rugulosin concentration with significantly reduced head capsule: 150 µM
[3]
  toxicity to cultured cells: toxic
